The test system of assay [1] is TNFα release, U937 cells. Briefly: U937 Cell TNFα Release Assay (LPS-stimulated, TNFα ELISA). The class given is cell-based. To be noted: Homo sapiens, read-out: TNFα release assay IC50. On the procedure: U937 Cell TNFα Release Assay
The human monocyte-like cell line, U937 (ATCC #CRL-1593.2), is cultured in RPMI1640 media with 10% heat-inactivated fetal calf serum (GIBCO), glutamine and pen/strep at 37° C. and 5% CO2. Differentiation of U937 to monocytic/macrophage-like cells is induced by the addition of phorbol12-myristate 13-acetate (Sigma) at final concentration of 20 ng/ml to a culture of U937 cells at ˜0.5 million cells/ml and incubated for 24 hrs. The cells are centrifuged, washed with PBS and resuspended in fresh media without PMA and incubated for 24 hrs. Cells adherent to the culture flask are harvested by scraping, centrifugation, and resuspended in fresh media to 2 million cells/ml, and 0.2 ml is aliquoted to each of 96 wells in flat-bottom plate. Cells are then incubated for an additional 24 hrs to allow for recovery. […]
ELISA plates (NUNC-Immuno™ Plate Maxisorb™ Surface) were coated with purified mouse monoclonal IgG1 anti-human TNFα antibody (R&D Systems #MAB610; 1.25 ug/ml in sodium bicarbonate pH 8.0, 0.1 ml/well) and incubated at 4° C. […] Enzymatic conversion of ABTS to colored product was measured after 5-30 minutes using a SpectroMax 340 spectrophotometer (Molecular Devices) at 405 nm. TNF levels were quantitated from a recombinant human TNFα (R&D Systems #210-TA-010) standard curve using a quadratic parameter fit generated by SoftMaxPRO software. […]

Assay [2] relates to LPS-induced TNFα production. The assay can be described thus: Rat LPS assay: Lipopolysaccharide (LPS)-Induced TNFα Production. The class given is in vivo. To be noted: 20 mpk (IP); inhibition of serum TNFα vs vehicle.
Assay [3] deals with MAPKAPK2 (Homo sapiens, UniProt P49137). The assay can be described thus: biochemical. The class given is biochemical.
Chain of MAPKAPK2 (P49137 whole entry, species assumed): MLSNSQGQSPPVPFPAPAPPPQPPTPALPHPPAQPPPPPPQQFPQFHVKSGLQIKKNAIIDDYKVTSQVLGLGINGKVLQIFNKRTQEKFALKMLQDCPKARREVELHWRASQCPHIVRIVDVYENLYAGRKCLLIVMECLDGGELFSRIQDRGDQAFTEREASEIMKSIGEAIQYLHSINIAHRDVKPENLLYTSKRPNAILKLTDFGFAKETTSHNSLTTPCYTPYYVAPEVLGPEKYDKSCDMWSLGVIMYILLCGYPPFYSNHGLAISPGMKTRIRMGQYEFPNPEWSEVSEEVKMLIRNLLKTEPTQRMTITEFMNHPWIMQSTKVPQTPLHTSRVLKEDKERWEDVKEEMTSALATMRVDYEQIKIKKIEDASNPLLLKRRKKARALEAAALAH
Procedure: The phosphorylation of HSP-peptide ([sequence]) by MAPKAPK2 was measured using an anion exchange resin capture assay method. […] The reaction was terminated and [γ^33P]ATP was removed from solution by the addition of 150 μl of AG 1×8 ion exchange resin in 900 mM sodium formate pH 3.0. A 50 μl aliquot of head volume was removed from the quenched reaction mixture and added to a 96-well plate, 150 μl of Microscint-40 (Packard) was added and the amount of phosphorylated-peptide was determined.
Compounds are evaluated as potential inhibitors of the MK2 kinase by measuring their effects on MK2 phosphorylation of the peptide substrate. Compounds may be screened initially at two concentrations prior to determination of IC50 values. Screening results are expressed as percent inhibition at the concentrations of compound tested. For IC50 value determinations, compounds are tested at six concentrations in ten-fold serial dilutions with each concentration tested in triplicate. Results are expressed as IC50 values in micromolar. The assay is performed at a final concentration of 2% DMSO.
Setting [4] is: HSP-peptide substrate, 0.03 mM ATP, 2% DMSO, read-out: MK-2 Avg. IC50.

This is an account of results in patent publication US20040127511A1 (Pharmacia Corporation, priority 2002, published 2004).

Counter-ions that a name gives are not always drawn. Like-named read-outs stand apart in the source and are kept apart here.

Take `N#Cc1c(N)nc2c(c1N)Cc1ccc(OCCN)cc1O2` [No. 19, 2,4-diamino-8-(2-aminoethoxy)-5H-chromeno[2,3-b]pyridine-3-carbonitrile hydrochloride]: in assay [1] (U-937, 4 h), the IC50 was 6.9 µM. In addition, in assay [2], the “Rat LPS Assay inhibition” value came out at 88%.

For `N#Cc1c(N)nc2c(c1N)Cc1ccc(OCCN3CCCC3)cc1O2.O=C(O)C(F)(F)F` [No. 25, 2,4-diamino-8-(2-pyrrolidin-1-ylethoxy)-5H-chromeno[2,3-b]pyridine-3-carbonitrile], the IC50 in assay [1] (U-937, differentiated U937 cells, LPS 100 ng/ml, 4 hrs) amounted to 2.9 µM. Besides, in assay [2], the “Rat LPS Assay inhibition” value is listed as 60%.

In assay [3], `N#Cc1c(N)nc2c(c1N)Cc1ccc(OCCN3CCOCC3)cc1O2` [No. 28, trifluoroacetate] displayed a half-inhibitory concentration (IC50) of 0.91 µM.

`Cc1ccc2c(c1)Oc1nc(N)c(C#N)c(N)c1C2` [No. 42, trifluoroacetate]: the IC50 in assay [3] (setting [4]) is ≥ 200 µM.

`COc1cc(OC)c2c(c1)Oc1nc(N)c(C#N)c(N)c1C2` [No. 62, trifluoroacetate]: in assay [3] (setting [4]), the IC50 is ≥ 200 µM.

Consider `COc1cccc2c1Cc1c(nc(N)c(C#N)c1N)O2` [No. 70, trifluoroacetate], for which, in assay [3] (setting [4]), the 50% inhibitory concentration (IC50) was ≥ 200 µM.

In the case of `N#Cc1c(N)nc2c(c1N)Cc1cc(OC(F)(F)F)ccc1O2` [No. 70, trifluoroacetate], the IC50 in assay [3] (setting [4]) was ≥ 200 µM.

With `N#Cc1c(N)nc2c(c1N)Cc1cccc(C(=O)O)c1O2` [No. 81, trifluoroacetate], the half-inhibitory concentration (IC50) in assay [3] is ≥ 200 µM.

Consider `N#Cc1c(N)nc2c(c1N)Cc1cccc(OCc3ccncc3)c1O2` [No. 83], for which the IC50 in assay [3] (setting [4]) was ≥ 200 µM.

Regarding `COc1cc2c(cc1OC)Oc1nc(N)c(C#N)c(NCCN3C(=O)c4ccccc4C3=O)c1C2` [No. 94], in assay [3] (setting [4]), the concentration for half-maximal inhibition (IC50) was ≥ 200 µM.

Consider `CCNc1nc2c(c(NCC)c1C#N)Cc1cc(OC)c(OC)cc1O2` [No. 103, trifluoroacetate], for which, in assay [3] (setting [4]), the IC50 is ≥ 200 µM.
